pIC50: −log10 of the molar value. Like-named read-outs stand apart in the source and are kept apart here.
Legend:
Format in all cases: biochemical
Kdr = target: T1, Kdr (Homo sapiens, UniProt P35968); assay: Kinase inhibition assay (33P transfer), Kdr; conditions: for pIC50: read-out: KDR-1
T1 construct: Kinases are expressed as either kinase domains or full length constructs; made in house
Excerpt: (§1) The inhibitor compounds described herein are screened in the following manner. Kinases suitable for use in the following protocol to determine kinase activity of the compounds described herein include, -but are not limited to: Lck, Lyn, Src, Fyn, Syk, Zap-70, Itk, Tec, Btk, EGFR, ErbB2, Kdr, Flt-1, Flt-3, Tek, c-Met, InsR, and AKT.
(§2) Kinases are expressed as either kinase domains or full length constructs fused to glutathione S-transferase (GST) or polyHistidine tagged fusion proteins in either E. colior Baculovirus-High Five expression systems. […] In some instances, kinases are co-expressed or mixed with purified or partially purified regulatory polypeptides prior to measurement of activity.
(§3) Briefly, The transfer of ^33PO4 from ATP to the synthetic substrates poly(Glu, Tyr) 4:1 or poly(Arg, Ser) 3:1 attached to the bioactive surface of microtiter plates serves as the basis to evaluate enzyme activity. After an incubation period, the amount of phosphate transferred is measured by first washing the plate with 0.5% phosphoric acid, adding liquid scintillant, and then counting in a liquid scintillation detector.

Zap-70 = target: T2, Zap-70 (Homo sapiens, UniProt P43403); assay: Kinase inhibition assay (33P transfer), Zap-70; conditions: for pIC50: read-out: Zap-1
T2 construct: Kinases are expressed as either kinase domains or full length constructs; made in house
T2 sequence (P43403 1-619): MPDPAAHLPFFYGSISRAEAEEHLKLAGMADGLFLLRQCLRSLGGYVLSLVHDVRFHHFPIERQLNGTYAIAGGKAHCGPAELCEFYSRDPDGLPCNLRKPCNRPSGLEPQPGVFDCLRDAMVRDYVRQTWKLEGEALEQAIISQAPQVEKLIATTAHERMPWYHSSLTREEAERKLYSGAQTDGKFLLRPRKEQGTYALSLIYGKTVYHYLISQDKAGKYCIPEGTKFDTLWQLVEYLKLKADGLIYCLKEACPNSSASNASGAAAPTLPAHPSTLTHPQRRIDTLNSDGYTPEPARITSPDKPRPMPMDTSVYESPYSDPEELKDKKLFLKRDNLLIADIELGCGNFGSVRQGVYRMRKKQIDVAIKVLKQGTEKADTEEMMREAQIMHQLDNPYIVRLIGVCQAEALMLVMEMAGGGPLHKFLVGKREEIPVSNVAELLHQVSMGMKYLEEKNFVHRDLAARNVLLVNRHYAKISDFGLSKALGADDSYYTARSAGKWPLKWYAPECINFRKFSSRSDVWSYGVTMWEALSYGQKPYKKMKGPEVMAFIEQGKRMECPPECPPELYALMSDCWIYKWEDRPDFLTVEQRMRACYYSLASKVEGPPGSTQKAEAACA
Excerpt: as §1, §2, §3

EGFR = target: T3, EGFR (Homo sapiens, UniProt P00533); assay: Kinase inhibition assay (33P transfer), EGFR; conditions: Table 2, kinase inhibition class; for pIC50: read-out: EGFR-1
T3 construct: Kinases are expressed as either kinase domains or full length constructs; made in house
T3 sequence (P00533 25-1210, species assumed): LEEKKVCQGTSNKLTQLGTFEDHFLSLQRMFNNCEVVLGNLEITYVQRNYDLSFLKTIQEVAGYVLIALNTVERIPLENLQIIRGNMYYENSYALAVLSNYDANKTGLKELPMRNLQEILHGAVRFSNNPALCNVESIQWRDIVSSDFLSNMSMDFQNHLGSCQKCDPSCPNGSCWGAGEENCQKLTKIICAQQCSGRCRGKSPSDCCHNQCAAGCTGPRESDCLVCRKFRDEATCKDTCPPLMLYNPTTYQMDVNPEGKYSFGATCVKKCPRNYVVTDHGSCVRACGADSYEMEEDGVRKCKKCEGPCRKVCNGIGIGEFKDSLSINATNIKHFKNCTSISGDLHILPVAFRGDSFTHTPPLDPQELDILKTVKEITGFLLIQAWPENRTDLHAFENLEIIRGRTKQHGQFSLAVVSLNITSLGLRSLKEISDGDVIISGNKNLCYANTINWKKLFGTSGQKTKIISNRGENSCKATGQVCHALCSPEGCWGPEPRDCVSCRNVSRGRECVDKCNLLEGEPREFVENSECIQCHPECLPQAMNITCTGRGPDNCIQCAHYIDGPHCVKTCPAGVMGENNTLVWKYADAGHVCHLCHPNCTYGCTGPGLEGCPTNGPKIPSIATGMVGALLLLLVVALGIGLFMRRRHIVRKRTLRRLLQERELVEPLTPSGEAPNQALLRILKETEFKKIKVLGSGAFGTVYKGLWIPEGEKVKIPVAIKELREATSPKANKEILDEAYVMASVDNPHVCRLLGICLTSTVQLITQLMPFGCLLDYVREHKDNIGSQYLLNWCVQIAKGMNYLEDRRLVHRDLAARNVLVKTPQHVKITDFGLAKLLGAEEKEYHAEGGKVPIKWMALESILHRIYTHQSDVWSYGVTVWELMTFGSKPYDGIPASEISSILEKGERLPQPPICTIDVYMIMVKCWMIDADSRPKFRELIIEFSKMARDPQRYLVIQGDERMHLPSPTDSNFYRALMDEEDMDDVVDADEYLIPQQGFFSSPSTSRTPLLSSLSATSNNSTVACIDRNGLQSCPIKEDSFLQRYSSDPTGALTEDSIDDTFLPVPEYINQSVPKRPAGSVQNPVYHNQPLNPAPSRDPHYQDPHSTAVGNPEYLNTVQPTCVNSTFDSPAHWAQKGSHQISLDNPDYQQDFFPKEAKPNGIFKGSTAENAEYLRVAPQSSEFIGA
Excerpt: as §1
(§4) Kinases are expressed as either kinase domains or full length constructs fused to glutathione S-transferase (GST) or polyHistidine tagged fusion proteins in either E. colior Baculovirus-High Five expression systems. They are purified to near homogeneity by affinity chromatography essentially as previously described (Lehr et al., 1996; Gish et al., 1995). In some instances, kinases are co-expressed or mixed with purified or partially purified regulatory polypeptides prior to measurement of activity.
as §3, with “Kinase activity and inhibition are measured essentially by established protocols (Braunwalder et al., 1996). Briefly,” for “Briefly,”, “detector. The IC50 is determined by the concentration of compound that causes a 50% reduction in the amount of […] incorporated onto the substrate bound to the plate.” for “detector.”

Itk = target: T4, Itk (Homo sapiens, UniProt Q08881); assay: Kinase inhibition assay (33P transfer), Itk; conditions: for pIC50: read-out: Itk-1
T4 construct: Kinases are expressed as either kinase domains or full length constructs; made in house
T4 sequence (Q08881 1-620): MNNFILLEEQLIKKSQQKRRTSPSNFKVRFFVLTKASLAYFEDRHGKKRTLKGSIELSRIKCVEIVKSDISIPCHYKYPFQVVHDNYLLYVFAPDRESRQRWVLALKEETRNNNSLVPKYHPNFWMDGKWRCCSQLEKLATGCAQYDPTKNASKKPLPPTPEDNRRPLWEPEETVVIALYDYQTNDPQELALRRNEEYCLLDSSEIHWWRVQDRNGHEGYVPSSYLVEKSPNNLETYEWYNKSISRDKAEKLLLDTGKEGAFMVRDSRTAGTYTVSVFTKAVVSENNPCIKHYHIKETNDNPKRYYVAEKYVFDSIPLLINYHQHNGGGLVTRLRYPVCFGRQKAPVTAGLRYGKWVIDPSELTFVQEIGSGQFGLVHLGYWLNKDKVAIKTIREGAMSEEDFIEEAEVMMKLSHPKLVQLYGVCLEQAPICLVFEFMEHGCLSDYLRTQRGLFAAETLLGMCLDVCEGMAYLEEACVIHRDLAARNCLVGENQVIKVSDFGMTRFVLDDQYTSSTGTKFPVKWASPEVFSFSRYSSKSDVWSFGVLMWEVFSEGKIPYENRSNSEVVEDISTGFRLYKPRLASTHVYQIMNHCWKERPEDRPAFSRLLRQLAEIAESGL
Excerpt: as §1, §4
as §3, with “Kinase activity and inhibition are measured essentially by established protocols (Braunwalder et al., 1996). Briefly,” for “Briefly,”, “detector. The IC50 is determined by the concentration of compound that causes a 50% reduction in the amount of […] incorporated onto the substrate bound to the plate.” for “detector.”

c-Met = target: T5, c-Met (Homo sapiens, UniProt P08581); assay: Kinase inhibition assay (33P transfer), c-Met; conditions: Table 2, kinase inhibition class; for pIC50: read-out: Met-1
T5 construct: Kinases are expressed as either kinase domains or full length constructs; made in house
T5 sequence (P08581 25-1390): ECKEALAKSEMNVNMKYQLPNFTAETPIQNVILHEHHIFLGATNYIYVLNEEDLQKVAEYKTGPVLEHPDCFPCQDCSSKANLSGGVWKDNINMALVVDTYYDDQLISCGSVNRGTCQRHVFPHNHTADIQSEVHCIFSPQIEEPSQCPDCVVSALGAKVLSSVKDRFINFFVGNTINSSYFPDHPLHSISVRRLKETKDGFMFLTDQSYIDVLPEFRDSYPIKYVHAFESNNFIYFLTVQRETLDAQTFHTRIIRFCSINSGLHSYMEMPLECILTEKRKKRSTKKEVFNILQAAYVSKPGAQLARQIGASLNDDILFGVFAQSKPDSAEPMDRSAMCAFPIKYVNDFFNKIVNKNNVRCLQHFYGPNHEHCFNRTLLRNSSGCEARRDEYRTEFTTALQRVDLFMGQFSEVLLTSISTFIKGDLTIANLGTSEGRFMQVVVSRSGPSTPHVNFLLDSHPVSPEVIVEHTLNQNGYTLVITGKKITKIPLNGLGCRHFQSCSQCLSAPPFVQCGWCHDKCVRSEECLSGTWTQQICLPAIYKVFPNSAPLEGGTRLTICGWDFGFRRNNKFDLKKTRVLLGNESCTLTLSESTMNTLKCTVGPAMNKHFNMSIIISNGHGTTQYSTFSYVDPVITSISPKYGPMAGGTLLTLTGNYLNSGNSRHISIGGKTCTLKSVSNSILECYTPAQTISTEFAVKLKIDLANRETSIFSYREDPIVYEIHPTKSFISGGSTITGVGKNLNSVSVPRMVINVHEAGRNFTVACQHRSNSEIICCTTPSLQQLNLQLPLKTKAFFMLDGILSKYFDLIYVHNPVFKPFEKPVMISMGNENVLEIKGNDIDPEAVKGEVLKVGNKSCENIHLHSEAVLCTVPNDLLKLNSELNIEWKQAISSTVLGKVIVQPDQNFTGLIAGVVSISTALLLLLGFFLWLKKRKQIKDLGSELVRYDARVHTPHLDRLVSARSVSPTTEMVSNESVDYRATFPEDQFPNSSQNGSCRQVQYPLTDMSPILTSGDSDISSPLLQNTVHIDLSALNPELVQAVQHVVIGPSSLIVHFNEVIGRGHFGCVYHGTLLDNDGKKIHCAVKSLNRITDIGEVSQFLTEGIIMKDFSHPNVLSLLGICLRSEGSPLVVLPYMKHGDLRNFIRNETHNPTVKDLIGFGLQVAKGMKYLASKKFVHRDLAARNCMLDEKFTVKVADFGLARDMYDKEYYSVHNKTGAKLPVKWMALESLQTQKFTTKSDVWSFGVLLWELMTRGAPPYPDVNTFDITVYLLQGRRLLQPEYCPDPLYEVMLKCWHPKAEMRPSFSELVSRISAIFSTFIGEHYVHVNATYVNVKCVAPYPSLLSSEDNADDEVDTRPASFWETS
Excerpt: as §1, §4
as §3, with “Kinase activity and inhibition are measured essentially by established protocols (Braunwalder et al., 1996). Briefly,” for “Briefly,”, “detector. The IC50 is determined by the concentration of compound that causes a 50% reduction in the amount of […] incorporated onto the substrate bound to the plate.” for “detector.”

AKT = target: T6, AKT (Homo sapiens, UniProt Q9Y243); assay: Kinase inhibition assay (33P transfer), AKT; conditions: Table 2, kinase inhibition class; for pIC50: read-out: AKT3-1
T6 construct: Kinases are expressed as either kinase domains or full length constructs; made in house
T6 sequence (Q9Y243 whole entry, the tested form may be a part): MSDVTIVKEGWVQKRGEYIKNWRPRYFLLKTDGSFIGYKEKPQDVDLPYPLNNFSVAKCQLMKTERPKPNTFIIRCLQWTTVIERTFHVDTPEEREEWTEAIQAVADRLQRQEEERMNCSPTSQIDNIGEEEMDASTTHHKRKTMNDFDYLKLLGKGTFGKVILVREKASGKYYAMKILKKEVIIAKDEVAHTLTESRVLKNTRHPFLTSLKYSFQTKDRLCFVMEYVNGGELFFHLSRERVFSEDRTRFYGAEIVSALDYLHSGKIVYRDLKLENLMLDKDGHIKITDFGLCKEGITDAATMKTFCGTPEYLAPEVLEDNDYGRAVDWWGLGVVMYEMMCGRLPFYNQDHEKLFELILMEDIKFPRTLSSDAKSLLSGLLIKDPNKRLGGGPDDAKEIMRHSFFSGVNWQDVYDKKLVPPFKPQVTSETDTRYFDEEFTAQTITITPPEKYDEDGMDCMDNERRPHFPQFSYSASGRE
Excerpt: as §1, §2, §3

Lck = target: T7, Lck (Homo sapiens, UniProt P06239); assay: Kinase inhibition assay (33P transfer), Lck; conditions: for pIC50: read-out: Lck-1
T7 construct: Kinases are expressed as either kinase domains or full length constructs; made in house
T7 sequence (P06239 whole entry, species assumed, the tested form may be a part): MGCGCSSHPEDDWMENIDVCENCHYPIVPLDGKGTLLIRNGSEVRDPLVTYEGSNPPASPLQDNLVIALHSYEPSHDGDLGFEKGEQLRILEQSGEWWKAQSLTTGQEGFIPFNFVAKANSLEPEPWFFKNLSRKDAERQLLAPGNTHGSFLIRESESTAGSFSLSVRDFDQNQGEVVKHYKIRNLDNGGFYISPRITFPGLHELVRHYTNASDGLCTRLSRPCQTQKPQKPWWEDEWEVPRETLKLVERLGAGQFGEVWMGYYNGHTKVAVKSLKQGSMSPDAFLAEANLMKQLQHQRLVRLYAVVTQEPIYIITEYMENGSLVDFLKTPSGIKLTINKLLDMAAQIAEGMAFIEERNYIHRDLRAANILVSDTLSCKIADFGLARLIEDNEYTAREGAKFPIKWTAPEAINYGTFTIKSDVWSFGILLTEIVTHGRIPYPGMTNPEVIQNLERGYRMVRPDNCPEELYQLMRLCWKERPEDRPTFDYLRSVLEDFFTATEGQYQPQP
Excerpt: as §1, §2, §3

T1 sequence (P35968 20-1356, species assumed): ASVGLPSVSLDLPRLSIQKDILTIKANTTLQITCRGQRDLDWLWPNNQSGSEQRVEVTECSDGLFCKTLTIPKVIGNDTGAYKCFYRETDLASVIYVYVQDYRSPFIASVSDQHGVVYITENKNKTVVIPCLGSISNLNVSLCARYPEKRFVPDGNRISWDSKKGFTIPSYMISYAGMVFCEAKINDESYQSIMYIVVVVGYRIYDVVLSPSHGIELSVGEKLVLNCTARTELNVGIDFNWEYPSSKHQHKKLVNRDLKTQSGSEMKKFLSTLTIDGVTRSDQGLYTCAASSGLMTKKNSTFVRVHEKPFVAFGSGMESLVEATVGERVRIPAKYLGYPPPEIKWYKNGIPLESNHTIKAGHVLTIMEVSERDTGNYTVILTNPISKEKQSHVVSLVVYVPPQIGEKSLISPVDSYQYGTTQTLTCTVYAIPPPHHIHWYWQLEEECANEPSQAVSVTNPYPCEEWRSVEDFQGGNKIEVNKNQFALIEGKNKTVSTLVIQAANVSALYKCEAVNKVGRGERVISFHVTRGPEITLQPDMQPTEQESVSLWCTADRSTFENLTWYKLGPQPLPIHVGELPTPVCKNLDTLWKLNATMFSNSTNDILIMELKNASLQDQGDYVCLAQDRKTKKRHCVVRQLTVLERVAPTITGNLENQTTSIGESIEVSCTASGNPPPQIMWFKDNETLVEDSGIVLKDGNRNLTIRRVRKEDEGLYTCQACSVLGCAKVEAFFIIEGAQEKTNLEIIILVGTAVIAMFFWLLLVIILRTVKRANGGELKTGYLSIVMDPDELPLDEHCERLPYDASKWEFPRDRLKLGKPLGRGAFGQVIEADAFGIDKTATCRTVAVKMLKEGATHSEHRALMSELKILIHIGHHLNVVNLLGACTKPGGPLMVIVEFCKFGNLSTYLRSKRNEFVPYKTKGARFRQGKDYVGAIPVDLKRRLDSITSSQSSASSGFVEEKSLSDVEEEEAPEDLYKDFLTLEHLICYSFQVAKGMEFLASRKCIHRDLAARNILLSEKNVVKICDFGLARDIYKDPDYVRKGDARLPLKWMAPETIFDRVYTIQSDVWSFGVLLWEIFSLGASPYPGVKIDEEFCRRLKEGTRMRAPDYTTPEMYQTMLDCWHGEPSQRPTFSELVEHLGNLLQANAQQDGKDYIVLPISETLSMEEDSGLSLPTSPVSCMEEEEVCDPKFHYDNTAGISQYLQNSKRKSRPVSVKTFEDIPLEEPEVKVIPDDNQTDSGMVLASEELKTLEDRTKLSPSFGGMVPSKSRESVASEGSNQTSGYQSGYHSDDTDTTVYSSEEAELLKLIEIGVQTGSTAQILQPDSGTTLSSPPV

SMILES	pIC50 (Kdr)	pIC50 (Zap-70)	pIC50 (EGFR)	pIC50 (Itk)	pIC50 (c-Met)	pIC50 (AKT)	pIC50 (Lck)	pIC50 (Kdr; Table 3)	pIC50 (Zap-70; Table 3)	pIC50 (Itk; Table 3)	pIC50 (Lck; Table 3)	KDR-1 (Kdr)	Zap-1 (Zap-70)	EGFR-1 (EGFR)	Itk-1 (Itk)	Met-1 (c-Met)	AKT3-1 (AKT)	Lck-1 (Lck)
COc1cc(Nc2ncnc(-n3c(=O)oc4ccccc43)n2)cc(OC)c1OC [Compound 423]	–	–	5.22 to 5.99	–	< 4.94	5.05 to 5.22	–	5.22 to 5.99	< 4.94	< 4.94	5.22 to 5.99	–	–	–	–	–	–	–
NC(=O)[C@H](CO)Nc1ncnc(-n2c(=O)[nH]c3ccccc32)n1 [Compound 450]	–	–	< 4.85	–	< 4.85	< 4.85	–	< 4.85	< 4.85	< 4.85	< 4.85	–	–	–	–	–	–	–
N#Cc1ccc(Nc2ncnc(-n3c(=O)[nH]c4ccccc43)n2)cc1 [Compound 485]	5.14 to 5.92	< 4.86	< 4.86	< 4.86	< 4.86	< 4.86	< 4.86	–	–	–	–	–	–	–	–	–	–	–
O=c1[nH]c2ccccc2n1-c1ncnc(Nc2cc(Cl)cc(Cl)c2)n1 [Compound 503]	< 4.92	4.92 to 5.03	< 4.92	< 4.92	< 4.92	< 4.92	4.92 to 5.03	–	–	–	–	–	–	–	–	–	–	–
NS(=O)(=O)c1ccc(Nc2ncnc(-n3c(=O)[nH]c4ccccc43)n2)cc1 [Compound 451]	–	–	< 4.93	–	< 4.93	4.93 to 5.04	–	5.20 to 5.98	< 4.93	< 4.93	5.20 to 5.98	–	–	–	–	–	–	–
O=c1[nH]c2ccccc2n1-c1ncnc(Nc2cccc3cccnc23)n1 [Compound 688]	< 4.90	5.01 to 5.17	< 4.90	< 4.90	< 4.90	< 4.90	< 4.90	–	–	–	–	–	–	–	–	–	–	–
CC(C)(C)c1cc(Nc2ncnc(Nc3cccc(CO)c3)n2)[nH]n1 [Compound 499]	5.15 to 5.93	< 4.88	5.15 to 5.93	5.15 to 5.93	5.15 to 5.93	< 4.88	5.15 to 5.93	–	–	–	–	–	–	–	–	–	–	–
O=c1[nH]c2ccccc2n1-c1ncnc(Nc2cccc3ncccc23)n1 [Compound 686]	< 4.90	< 4.90	< 4.90	< 4.90	< 4.90	< 4.90	< 4.90	–	–	–	–	–	–	–	–	–	–	–
COc1ncnc(Nc2cc(OC)c(OC)c(OC)c2)n1 [Compound 421]	–	–	< 4.81	–	< 4.81	< 4.81	–	< 4.81	< 4.81	< 4.81	< 4.81	–	–	–	–	–	–	–
COc1cc(Nc2ncnc(-c3ccc(N4CCNCC4)nc3)n2)cc(OC)c1OC [Compound 436]	–	–	4.97 to 5.08	–	< 4.97	< 4.97	–	4.97 to 5.08	< 4.97	< 4.97	< 4.97	–	–	–	–	–	–	–
C#Cc1cccc(Nc2ncnc(-n3c(=O)[nH]c4ccccc43)n2)c1 [Compound 460]	–	–	5.14 to 5.91	–	4.97 to 5.14	< 4.86	–	5.14 to 5.91	< 4.86	< 4.86	4.86 to 4.97	–	–	–	–	–	–	–
CCOC(=O)C(Cc1cccc(Nc2ncnc(Nc3cc(-c4ccco4)n[nH]3)n2)c1)(NC(C)=O)C(=O)OCC [Compound 481]	5.36 to 6.14	< 5.09	< 5.09	5.09 to 5.20	< 5.09	< 5.09	< 5.09	–	–	–	–	–	–	–	–	–	–	–
COc1cc(Nc2ncnc(-c3ccc(NCc4ccccc4)nc3)n2)cc(OC)c1OC [Compound 471]	< 4.99	< 4.99	< 4.99	< 4.99	< 4.99	< 4.99	< 4.99	–	–	–	–	–	–	–	–	–	–	–
COc1cc(Nc2ncnc(-n3c(N)nc4ccccc43)n2)cc(OC)c1 [Compound 477]	> 5.96	< 4.91	< 4.91	5.18 to 5.96	< 4.91	< 4.91	5.18 to 5.96	–	–	–	–	–	–	–	–	–	–	–
COc1cc(Nc2ncnc(-c3cccnc3NCCN)n2)cc(OC)c1OC [Compound 1074]	–	–	–	–	–	–	–	–	–	–	–	B (B>0.4 and <2.4 ug/mL)	E (E>4.5 ug/mL)	E (E>4.5 ug/mL)	E (E>4.5 ug/mL)	E (E>4.5 ug/mL)	E (E>4.5 ug/mL)	C (C>2.4 and <3.5 ug/mL)

Continued, in another order:

pIC50 (Kdr)	pIC50 (Zap-70)	pIC50 (EGFR)	pIC50 (Itk)	pIC50 (c-Met)	pIC50 (AKT)	pIC50 (Lck)	pIC50 (Kdr; Table 3)	pIC50 (Zap-70; Table 3)	pIC50 (Itk; Table 3)	pIC50 (Lck; Table 3)	SMILES	KDR-1 (Kdr)	Zap-1 (Zap-70)	EGFR-1 (EGFR)	Itk-1 (Itk)	Met-1 (c-Met)	AKT3-1 (AKT)	Lck-1 (Lck)
> 5.94	< 4.89	5.00 to 5.16	5.16 to 5.94	5.16 to 5.94	< 4.89	5.16 to 5.94	–	–	–	–	CN(C)c1ccc(Nc2ncnc(-n3c(N)nc4ccccc43)n2)cc1 [Compound 527]	–	–	–	–	–	–	–
5.15 to 5.93	< 4.88	5.15 to 5.93	5.15 to 5.93	> 5.93	< 4.88	5.15 to 5.93	–	–	–	–	CC(C)(C)c1cc(Nc2ncnc(Nc3ccc(CO)cc3)n2)[nH]n1 [Compound 501]	–	–	–	–	–	–	–
5.13 to 5.90	< 4.85	5.13 to 5.90	4.85 to 4.96	4.96 to 5.13	< 4.85	4.96 to 5.13	–	–	–	–	O=c1[nH]c2ccccc2n1-c1ncnc(Nc2ccc(O)cc2)n1 [Compound 682]	–	–	–	–	–	–	–
–	–	< 4.89	–	< 4.89	< 4.89	–	5.16 to 5.94	< 4.89	< 4.89	< 4.89	NC(=O)c1ccc(Nc2ncnc(-n3c(=O)[nH]c4ccccc43)n2)cc1 [Compound 419]	–	–	–	–	–	–	–
> 5.94	< 4.89	< 4.89	< 4.89	< 4.89	< 4.89	5.16 to 5.94	–	–	–	–	C=CCNc1ncccc1-c1ncnc(Nc2ccc(C(N)=O)cc2)n1 [Compound 1081]	–	–	–	–	–	–	–
5.10 to 5.88	< 4.83	< 4.83	< 4.83	< 4.83	< 4.83	< 4.83	–	–	–	–	O=c1[nH]c2ccccc2n1-c1ncnc(Nc2ccncc2)n1 [Compound 488]	–	–	–	–	–	–	–
< 5.01	< 5.01	< 5.01	< 5.01	< 5.01	< 5.01	< 5.01	–	–	–	–	COc1cc(Nc2ncnc(-c3cccnc3NCCN3CCCCC3)n2)cc(OC)c1OC [Compound 1079]	–	–	–	–	–	–	–

Reference: patent publication US7074789B2, “Kinase inhibitors” (Amgen Inc., priority 1999, dated 2006)
